Broadly, the IC50 is the concentration at which inhibition is half-maximal.

One assay addresses PIK3CG (human) (UniProt P48736). Briefly: Assessment of PIK3CG Kinase Activity.
A further assay concerns the target PIK3CA (human) (UniProt P42336). Briefly: Assessment of PIK3CA Kinase Activity.
In assay [1] the target is PIK3CA (human), P42336 [H1047R]. Put plainly: Assessment of PIK3CA(H1047R) Kinase Activity.
The next assay addresses PIK3CB (Human) (UniProt P42338). Briefly: Assessment of PIK3CB Kinase Activity.
In assay [2] the target is PIK3CA (human), P42336 [E545K]. Briefly: Assessment of PIK3CA(E545K) Kinase Activity.
PIK3CA (human), P42336 [E545K], sequence (P42336 whole entry E545K, looked up): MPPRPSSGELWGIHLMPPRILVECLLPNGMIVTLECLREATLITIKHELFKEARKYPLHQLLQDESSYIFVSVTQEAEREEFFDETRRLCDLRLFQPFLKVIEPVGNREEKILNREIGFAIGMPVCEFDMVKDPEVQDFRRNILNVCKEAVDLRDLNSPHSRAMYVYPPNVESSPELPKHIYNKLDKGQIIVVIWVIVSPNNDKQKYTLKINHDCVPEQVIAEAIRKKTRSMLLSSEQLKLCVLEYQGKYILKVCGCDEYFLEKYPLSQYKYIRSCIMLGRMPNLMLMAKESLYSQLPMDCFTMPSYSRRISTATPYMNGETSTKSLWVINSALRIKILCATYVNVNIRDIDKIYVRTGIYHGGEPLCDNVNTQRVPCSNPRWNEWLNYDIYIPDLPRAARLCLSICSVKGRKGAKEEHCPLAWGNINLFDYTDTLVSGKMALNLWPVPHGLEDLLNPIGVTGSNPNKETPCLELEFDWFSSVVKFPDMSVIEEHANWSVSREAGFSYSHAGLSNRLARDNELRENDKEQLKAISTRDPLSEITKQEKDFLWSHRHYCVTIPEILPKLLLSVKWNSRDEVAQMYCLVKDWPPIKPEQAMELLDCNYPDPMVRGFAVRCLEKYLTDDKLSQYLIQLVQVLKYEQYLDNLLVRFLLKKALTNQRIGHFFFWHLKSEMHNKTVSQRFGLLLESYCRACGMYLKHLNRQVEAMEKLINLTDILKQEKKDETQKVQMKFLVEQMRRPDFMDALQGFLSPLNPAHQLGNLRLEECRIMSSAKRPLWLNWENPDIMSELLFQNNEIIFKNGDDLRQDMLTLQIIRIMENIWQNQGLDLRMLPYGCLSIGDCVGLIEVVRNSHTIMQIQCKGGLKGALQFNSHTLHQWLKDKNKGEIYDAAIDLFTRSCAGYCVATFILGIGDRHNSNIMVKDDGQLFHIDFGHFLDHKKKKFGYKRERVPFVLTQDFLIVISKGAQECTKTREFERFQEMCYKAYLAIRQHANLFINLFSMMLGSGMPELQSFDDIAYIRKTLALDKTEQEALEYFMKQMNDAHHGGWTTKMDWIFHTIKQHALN

PIK3CB (Human), sequence (P42338 whole entry, looked up): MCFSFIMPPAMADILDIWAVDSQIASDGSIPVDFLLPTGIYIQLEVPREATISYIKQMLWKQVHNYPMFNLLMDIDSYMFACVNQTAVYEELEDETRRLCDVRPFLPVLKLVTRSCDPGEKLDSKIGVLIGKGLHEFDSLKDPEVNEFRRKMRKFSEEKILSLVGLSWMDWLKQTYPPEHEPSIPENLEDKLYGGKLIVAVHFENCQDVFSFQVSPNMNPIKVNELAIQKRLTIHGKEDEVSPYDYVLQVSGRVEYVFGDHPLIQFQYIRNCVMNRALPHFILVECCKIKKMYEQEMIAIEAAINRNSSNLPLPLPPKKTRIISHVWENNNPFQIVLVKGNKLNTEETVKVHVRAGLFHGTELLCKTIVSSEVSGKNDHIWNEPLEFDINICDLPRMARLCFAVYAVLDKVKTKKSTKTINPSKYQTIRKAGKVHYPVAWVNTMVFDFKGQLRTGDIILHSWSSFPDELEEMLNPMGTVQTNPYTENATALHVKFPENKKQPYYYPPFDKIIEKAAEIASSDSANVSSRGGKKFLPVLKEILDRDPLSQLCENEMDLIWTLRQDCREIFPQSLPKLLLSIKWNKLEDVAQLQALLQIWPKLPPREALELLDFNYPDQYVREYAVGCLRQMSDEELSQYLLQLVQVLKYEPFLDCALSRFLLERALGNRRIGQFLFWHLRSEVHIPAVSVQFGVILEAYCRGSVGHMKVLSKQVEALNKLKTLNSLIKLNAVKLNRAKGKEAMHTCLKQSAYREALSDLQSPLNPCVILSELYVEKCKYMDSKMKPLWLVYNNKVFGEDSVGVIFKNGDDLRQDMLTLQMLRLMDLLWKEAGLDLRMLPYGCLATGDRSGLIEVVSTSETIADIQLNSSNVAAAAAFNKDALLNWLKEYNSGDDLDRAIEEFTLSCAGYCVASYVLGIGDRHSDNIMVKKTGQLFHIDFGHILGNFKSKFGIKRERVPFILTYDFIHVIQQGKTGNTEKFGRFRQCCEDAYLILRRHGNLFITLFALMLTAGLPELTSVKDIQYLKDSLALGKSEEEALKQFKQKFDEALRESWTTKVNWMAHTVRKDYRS
PIK3CG (human), sequence (P48736 whole entry, looked up): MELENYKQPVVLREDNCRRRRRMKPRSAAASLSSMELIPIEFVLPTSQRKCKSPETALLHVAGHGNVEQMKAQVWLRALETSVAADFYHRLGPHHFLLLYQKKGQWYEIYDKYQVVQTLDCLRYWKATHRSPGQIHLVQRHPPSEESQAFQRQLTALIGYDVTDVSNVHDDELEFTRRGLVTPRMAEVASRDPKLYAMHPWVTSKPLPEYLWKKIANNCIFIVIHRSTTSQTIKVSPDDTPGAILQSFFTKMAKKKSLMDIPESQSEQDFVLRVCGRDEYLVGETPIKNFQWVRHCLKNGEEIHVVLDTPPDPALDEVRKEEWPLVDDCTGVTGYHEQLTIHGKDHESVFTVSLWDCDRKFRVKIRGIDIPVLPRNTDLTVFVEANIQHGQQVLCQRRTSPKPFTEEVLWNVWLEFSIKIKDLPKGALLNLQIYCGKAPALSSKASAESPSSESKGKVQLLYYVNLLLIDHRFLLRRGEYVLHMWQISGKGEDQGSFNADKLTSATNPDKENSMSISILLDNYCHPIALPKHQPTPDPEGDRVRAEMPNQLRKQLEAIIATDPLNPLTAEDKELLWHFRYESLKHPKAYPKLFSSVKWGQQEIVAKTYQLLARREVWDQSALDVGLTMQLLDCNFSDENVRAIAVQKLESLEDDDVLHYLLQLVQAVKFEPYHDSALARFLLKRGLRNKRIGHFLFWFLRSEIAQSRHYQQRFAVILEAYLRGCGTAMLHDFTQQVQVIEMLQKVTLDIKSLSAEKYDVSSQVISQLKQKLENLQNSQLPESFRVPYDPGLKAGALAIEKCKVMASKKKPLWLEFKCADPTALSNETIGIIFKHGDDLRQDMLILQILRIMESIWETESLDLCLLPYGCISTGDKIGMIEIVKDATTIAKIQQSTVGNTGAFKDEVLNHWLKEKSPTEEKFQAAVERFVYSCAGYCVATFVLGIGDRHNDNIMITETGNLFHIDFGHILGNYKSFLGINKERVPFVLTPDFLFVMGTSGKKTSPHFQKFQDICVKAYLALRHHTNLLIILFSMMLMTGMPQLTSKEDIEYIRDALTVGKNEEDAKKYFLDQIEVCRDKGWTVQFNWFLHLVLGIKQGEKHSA
PIK3CA (human), sequence (P42336 whole entry, looked up): as the sequence (P42336 whole entry E545K, looked up) above, with K545E counted along it
PIK3CA (human), P42336 [H1047R], sequence (P42336 whole entry H1047R, looked up): as the sequence (P42336 whole entry E545K, looked up) above, with K545E, H1047R counted along it

As for `CN(C)C(=O)c1ccc(NC(=O)Nc2ccc(-c3nc(N4CCOCC4)c4ccc(-c5cncnc5)cc4n3)cc2)c(F)c1`, the IC50 against PIK3CG (human) was less than 0.5 µM; at PIK3CA (human), less than 0.05 µM; in assay [1], 0.05 to 0.5 µM; against PIK3CB (Human), 0.05 to 0.5 µM; in assay [2], 0.05 to 0.5 µM.
`CN(C)C(=O)c1ccc(NC(=O)Nc2ccc(-c3nc(N4CCOCC4)c4ccc(-c5cccnc5F)cc4n3)cc2)c(F)c1`: the IC50 at PIK3CA (human) is 0.05 to 0.2 µM; in assay [1], 0.05 to 0.5 µM; against PIK3CB (Human), 0.05 to 0.5 µM; in assay [2], 0.05 to 0.5 µM.
`CN(C)C(=O)c1ccc(NC(=O)Nc2ccc(-c3nc(N4CCOCC4)c4ncc(-c5cccnc5F)cc4n3)cn2)cc1`: the half-maximal inhibitory concentration (IC50) is less than 0.5 µM against PIK3CG (human); less than 0.05 µM against PIK3CA (human); less than 0.05 µM in assay [1]; less than 0.05 µM on PIK3CB (Human); less than 0.05 µM in assay [2].
With `CN(C)C(=O)c1ccc(NC(=O)Nc2ccc(-c3nc(N4CCOCC4)c4cc(F)c(-c5cnn(C)c5)cc4n3)cn2)cc1`, the half-maximal inhibitory concentration (IC50) is less than 0.5 µM on PIK3CG (human); less than 0.05 µM at PIK3CA (human); less than 0.05 µM in assay [1]; less than 0.05 µM against PIK3CB (Human); less than 0.05 µM in assay [2].
For `CN(C)C(=O)c1ccc(NC(=O)Nc2ccc(-c3nc(N4CCOCC4)c4ccc(-c5cncnc5)cc4n3)cc2)cc1`, the concentration for half-maximal inhibition (IC50) (on PIK3CA (human); in assay [1]; in assay [2]) was less than 0.05 µM each time.
`CN(C)C(=O)c1ccc(NC(=O)Nc2ccc(-c3nc(N4CCOCC4)c4ccc(-c5cccc(S(C)(=O)=O)c5)cc4n3)cn2)cc1F`: the IC50 at PIK3CG (human) is less than 0.5 µM; at PIK3CA (human), less than 0.05 µM; in assay [1], less than 0.05 µM; at PIK3CB (Human) it was less than 0.05 µM; in assay [2] it was less than 0.05 µM.
Take `CN(C)C(=O)c1ccc(NC(=O)Nc2ccc(-c3nc(N4CCOCC4)c4ccc(-c5cccc(S(C)(=O)=O)c5)cc4n3)cn2)cc1`: the 50% inhibitory concentration (IC50) against PIK3CG (human) was less than 0.5 µM; against PIK3CA (human), less than 0.05 µM; in assay [1] it was less than 0.05 µM; against PIK3CB (Human), less than 0.05 µM; in assay [2] it was less than 0.05 µM.
Consider `CN(C)C(=O)c1ccc(NC(=O)Nc2ccc(-c3nc(N4CCOCC4)c4ncc(-c5cccc(S(C)(=O)=O)c5)cc4n3)cn2)cc1`, for which the IC50 against PIK3CG (human) is less than 0.5 µM; against PIK3CA (human), less than 0.05 µM; in assay [1] it was less than 0.05 µM; against PIK3CB (Human), less than 0.05 µM; in assay [2], less than 0.05 µM.
For `CN(C)C(=O)c1ccc(NC(=O)Nc2ccc(-c3nc(N4CCOCC4)c4ccc(-c5ccco5)cc4n3)cc2)cc1`, the IC50 was less than 0.5 µM at PIK3CG (human); less than 0.05 µM on PIK3CA (human); less than 0.05 µM in assay [1]; less than 0.05 µM against PIK3CB (Human); less than 0.05 µM in assay [2].
Regarding `CN(C)C(=O)c1ccc(NC(=O)Nc2ccc(-c3nc(N4CCOCC4)c4ccc(-c5cccnc5)cc4n3)cc2)c(F)c1`, the IC50 was less than 0.5 µM on PIK3CG (human); less than 0.05 µM against PIK3CA (human); 0.05 to 0.5 µM in assay [1]; 0.05 to 0.5 µM at PIK3CB (Human); 0.05 to 0.5 µM in assay [2].
In the case of `CN(C)C(=O)c1ccc(NC(=O)Nc2ccc(-c3nc(N4CCOCC4)c4ncc(-c5cccc(S(C)(=O)=O)c5)cc4n3)cc2F)cc1`, the IC50 against PIK3CG (human) was less than 0.5 µM; against PIK3CA (human) it was less than 0.05 µM; in assay [1], less than 0.05 µM; at PIK3CB (Human) it was 0.05 to 0.5 µM; in assay [2] it was less than 0.05 µM.
Regarding `Cc1ccc(-c2ccc3c(N4CCOCC4)nc(-c4ccc(NC(=O)Nc5ccc(C(=O)N(C)C)cc5)cc4)nc3c2)o1`, the IC50 on PIK3CG (human) is 0.5 to 1 µM; on PIK3CA (human), less than 0.05 µM; in assay [1], less than 0.05 µM; on PIK3CB (Human), 0.5 to 1 µM; in assay [2], less than 0.05 µM.
Take `CS(=O)(=O)c1cccc(-c2ccc3c(N4CCOCC4)nc(-c4ccc(NC(=O)Nc5ccc(C(N)=O)cc5)cc4)nc3c2)c1`: the IC50 on PIK3CA (human) was 0.05 to 0.2 µM.
At PIK3CA (human), `CN(C)C(=O)c1ccc(NC(=O)Nc2ccc(-c3nc(N4CCOCC4)c4ccc(-c5cnc(N(C)C)nc5)cc4n3)cc2)cc1` displayed an IC50 of less than 0.05 µM.
The same measure, in the same setting: to `CC1CN(c2nc(-c3ccc(NC(=O)Nc4ccc(C(=O)N(C)C)cc4)cc3)nc3cc(-c4cnn(C)c4)cnc23)CCO1` (configuration not stated) belongs less than 0.05 µM; to `CN(C)[C@H]1CCN(C(=O)c2ccc(NC(=O)Nc3ccc(-c4nc(N5CCOCC5)c5ccc(-c6cncnc6)cc5n4)cc3)cc2)C1`, less than 0.05 µM; to `CN(C)C(=O)c1ccc(NC(=O)Nc2ccc(-c3nc(N4CCOCC4)c4cc(F)c(-c5cccnc5)cc4n3)cn2)cc1`, less than 0.05 µM.
As to `CN(C)C(=O)c1ccc(NC(=O)Nc2ccc(-c3nc(N4CCOCC4)c4ccc(-c5cccnc5F)cc4n3)cn2)cc1`, the IC50 at PIK3CG (human) is less than 0.5 µM; against PIK3CA (human), less than 0.05 µM; in assay [1], less than 0.05 µM; against PIK3CB (Human), less than 0.05 µM; in assay [2] it was less than 0.05 µM.
Take `O=C(Nc1ccc(C(=O)N2CCC(O)C2)cc1)Nc1ccc(-c2nc(N3CCOCC3)c3ccc(-c4ccco4)cc3n2)cc1` (configuration not stated): on PIK3CA (human), the IC50 is less than 0.05 µM.
On the same count and under the same terms, for `CN(C)C(=O)c1ccc(NC(=O)Nc2ccc(-c3nc(N4CCOCC4)c4ccc(-c5cncc(S(C)(=O)=O)c5)cc4n3)cc2)cc1` the value was less than 0.05 µM.
Turning to `CN(C)[C@H]1CCN(C(=O)c2ccc(NC(=O)Nc3ccc(-c4nc(N5CCOCC5)c5ncc(-c6cnn(C)c6)cc5n4)cc3)cc2)C1`, on PIK3CA (human), the IC50 was less than 0.05 µM.
Still for that read-out and setting: for `COc1cccc(-c2ccc3c(N4CCOCC4)nc(-c4ccc(NC(=O)Nc5ccc(C(=O)N(C)C)cc5)cc4)nc3c2)n1` the value was 0.05 to 0.2 µM.
As for `CN(C)C(=O)c1ccc(NC(=O)Nc2ccc(-c3nc(N4CCOCC4)c4ccc(-c5ccc(C(=O)N(C)C)o5)cc4n3)cc2)cc1`, the half-inhibitory concentration (IC50) against PIK3CA (human) is less than 0.05 µM.

(Values after the Kinase Knowledgebase extract (Sharma et al. 2016).)
